For two molecules, IC50 results are on record in US5514705A, “Epidioxymanadic acids A and B” (PharmaMar, S.A., priority 1994, dated 1996).

≈ marks a conversion by molar mass, not a printed value.

Holding throughout (assay type): cell-based
One experiment deals with MEL-28 (human melanoma). The experiment can be described thus: Cytotoxicity against MEL-28 cell line in culture. To be noted: SK-MEL-28; MEL-28 human melanoma cells in culture.
For experiment [1], the system named is HT29 (human colon carcinoma). The experiment in a line: Cytotoxicity against HT29 cell line in culture. The following applies: HT-29; HT29 human colon carcinoma cells in culture.
The next experiment concerns P388 (leukemia). The experiment can be described thus: Cytotoxicity against P388 cell line in culture. The following applies: Mus musculus; P388 leukemia cells in culture.
In experiment [2] the test system is A549 (human lung carcinoma). The experiment can be described thus: Cytotoxicity against A549 cell line in culture. The following applies: A549 human lung carcinoma cells in culture.

The term IC50 denotes the concentration at which inhibition is half-maximal. Higher therefore signals weaker potency. Regarding `CC/C=C(C)/C=C/CCC[C@@]1(OC)C[C@H](C)[C@H](CC(=O)O)OO1` [Epidioxymanadic B, epidioxymanadic acid B], the half-maximal inhibitory concentration (IC50) is 2.5 µg/mL (≈ 7.66 µM) with MEL-28 (human melanoma), 2 µg/mL (≈ 6.13 µM) in experiment [1], 0.5 µg/mL (≈ 1.53 µM) with P388 (leukemia) and 1 µg/mL (≈ 3.06 µM) in experiment [2].

Take `C/C=C(C)/C=C/CCC[C@@]1(OC)C[C@H](C)[C@H](CC(=O)O)OO1` [Epidioxymanadic A, epidioxymanadic acid A]: the IC50 in the experiment on MEL-28 (human melanoma) stood at 5 µg/mL (≈ 16 µM); in experiment [1], 2 µg/mL (≈ 6.4 µM); in the experiment with P388 (leukemia), 0.5 µg/mL (≈ 1.6 µM); in experiment [2] it was 1 µg/mL (≈ 3.2 µM).
